Data taken from PubChem BioAssay AID1626 (SRMLSC, 2009).

Test system: M. tuberculosis H37Rv growth inhibition
Test: M. tuberculosis H37Rv growth inhibitors, H37Rv strain (AID 1626)
Conditions: for IC90: measured here: IC90 against H37Rv; for CC50: measured here: Vero cell cytotoxicity

CCCCn1c(O)c(C(=O)/C=C/c2ccc3c(c2)OCO3)c(=O)[nH]c1=O
IC50: 4.53 µM
IC90: 7.66 µM
CC50: > 40 µM

Oc1ccc2cc(Br)ccc2c1CN1CCCC1
IC50: 22.2 µM
IC90: > 100 µM
CC50: > 40 µM

CCCCCc1cc(=O)oc2c(C(CCN3CCCCC3)c3cc(OC)c(OC)c(OC)c3)c(OC)cc(OC)c12 (configuration not stated)
IC50: 4.18 µM
IC90: 5.62 µM
CC50: 13.7 µM

O=C(COC(=O)c1c2c(nc3ccccc13)/C(=C/c1cccc([N+](=O)[O-])c1)CCC2)NC1CCS(=O)(=O)C1 (configuration not stated)
IC50: 6.99 µM
IC90: > 100 µM
CC50: 34 µM

Cc1c(C(=O)Oc2cccc3cccnc23)oc2ccccc12
IC50: 3.04 µM
IC90: 3.29 µM
CC50: 34.6 µM

CCOC(=O)c1ccc(NC(=O)CCc2nc(-c3ccc(C)cc3)no2)cc1
IC50: 1.36 µM
IC90: 12.4 µM
CC50: > 40 µM

Nc1ccccc1Nc1ccccc1
IC50: < 0.195 µM
IC90: 0.973 µM

O=C(Nc1ccc(N2CCOCC2)c(Cl)c1)c1ccc([N+](=O)[O-])o1
IC50: 7.54 µM
IC90: 11.3 µM
CC50: 3.3 µM

Cc1ccc(NC(=O)c2ccc(CSc3nccc(C)n3)cc2)cc1
IC50: 12.2 µM
IC90: > 100 µM

CCn1c(/C=C/c2ccc([N+](=O)[O-])o2)nc2ccccc2c1=O
IC50: < 0.195 µM
IC90: 0.383 µM
CC50: 15.6 µM

COc1ccc(N=Cc2c[nH][nH]c2=O)cc1
IC90: > 100 µM

Cc1[nH]n2c(=O)c3c(nc2c1-c1ccc(Cl)cc1)CCC3
IC50: 13.3 µM
IC90: 31 µM
CC50: 19.6 µM

COc1ccc(/C=C2\Sc3ccc(C(=O)NCc4cccnc4)cc3N(C)C2=O)cc1OC
IC50: 13 µM
IC90: 31.1 µM

O=C(Nc1ccc(-c2csc(Nc3cccc(C(F)(F)F)c3)n2)cc1)c1cc([N+](=O)[O-])cc(C(F)(F)F)c1
IC50: 7.37 µM
IC90: > 100 µM
CC50: 20.2 µM

Cc1ccc(NC(=O)CSc2ccc(-c3ccccn3)nn2)cc1
IC50: 1.98 µM
IC90: 2.74 µM
CC50: > 40 µM

COc1ccc(-c2nc(Cn3c(SCc4ccc(C)cc4)nc4ccncc43)c(C)o2)cc1OC
IC50: 6.52 µM
IC90: > 100 µM
CC50: > 40 µM

CC(C)c1ccc(Nc2nnc(SCC(=O)Nc3ncc(S(=O)(=O)c4ccc([N+](=O)[O-])cc4)s3)s2)cc1
IC50: 5.63 µM
IC90: 7.98 µM

CCOC(=O)c1ccc(NC(=O)C2CC2)cc1
IC50: 28.5 µM
IC90: > 100 µM

CCCCCCCCCn1c2c(c(=N)c3c1CCC3)CCCC2
IC50: 4.41 µM
IC90: 5.68 µM
CC50: 7.25 µM

O=c1c(O)c(-c2cccs2)oc2ccc(Cl)cc12
IC50: 9.53 µM
IC90: > 100 µM
CC50: > 40 µM

COc1ccc(C2CC(=O)C3=C(C2)NC(C)=C(C#N)C3c2ccc(N(C)C)cc2)cc1 (configuration not stated)
IC50: 12.5 µM
IC90: 21.9 µM

Cc1cccc(-n2c(/C=C/c3ccc([N+](=O)[O-])o3)nc3ccccc3c2=O)c1
IC90: > 100 µM
CC50: 28.7 µM

COc1cc(CNc2ccc3c(c2)CCC3)cc(OC)c1O
IC50: 46.4 µM
IC90: > 100 µM

CN1c2ccc([N+](=O)[O-])cc2CC2(C(=O)NC(=O)N(c3ccc(Br)cc3)C2=O)C1c1ccccc1 (configuration not stated)
IC50: 0.964 µM
IC90: > 100 µM
CC50: > 40 µM

O=Cc1ccc2oc3nc4n(c(=O)c3c(=O)c2c1)CCCS4
IC50: 0.441 µM
IC90: 1.24 µM

Cc1ccc(-c2csc(NC(=O)CSc3nc4ccccc4c(=O)n3CCCN(C)C)n2)cc1
IC50: 7.67 µM
IC90: 9.52 µM
CC50: 12 µM

O=C(Nc1nc(-c2cc(F)ccc2F)cs1)c1ccccn1
IC50: 3.8 µM
IC90: 67.8 µM
CC50: 21.2 µM

CCOC(=O)C1CCCN(c2ccc([N+](=O)[O-])c3nonc23)C1 (configuration not stated)
IC50: 1.46 µM
IC90: 1.6 µM

O=C(O)c1ccc(Nc2nc(-c3cc4ccccc4oc3=O)cs2)cc1O
IC50: 20.1 µM
IC90: > 100 µM

COc1cc(OC)c2c(-c3ccccc3)cc(=O)oc2c1C(CCN1CCCC(C)C1)c1ccc2c(c1)OCO2 (configuration not stated)
IC50: 5.64 µM
IC90: 10.4 µM
CC50: 24.3 µM

Cc1ccn2c(Nc3ccccc3)c(-c3ccccn3)nc2c1
IC50: 2.88 µM
IC90: 3.3 µM
CC50: 2.12 µM

N#CC1=C(S)N(c2ccccc2)C(c2ccc(-c3ccc(Cl)c(Cl)c3)o2)NC1=O (configuration not stated)
IC50: 41 µM
IC90: > 100 µM

CCNc1nc(NCC)nc(-n2nc(C)cc2C)n1
IC50: 5.04 µM
IC90: 18.4 µM

O=C1C(NS(=O)(=O)c2cccs2)=C(N2CCN(c3cccc(C(F)(F)F)c3)CC2)C(=O)c2ccccc21
IC50: 4.12 µM
IC90: 7.38 µM
CC50: > 40 µM

CSc1ccc(C(=O)C2CCCN(Cc3cc4ccccc4[nH]3)C2)cc1 (configuration not stated)
IC50: 2.43 µM
IC90: 2.98 µM
CC50: > 40 µM

CCCCNC(=O)c1cc2n(n1)C(C(F)(F)F)CC(c1ccccc1)N2 (configuration not stated)
IC50: 0.363 µM
IC90: 4.14 µM

CCOC(=O)c1ccc(NC(=O)c2cc3c(s2)CCC3)cc1
IC50: 4.74 µM
IC90: > 100 µM

COc1ccc(-c2cc(C(=O)Nc3nc4ccccc4s3)c3ccccc3n2)cc1OC
IC50: 4.02 µM
IC90: > 100 µM

C(=C\c1nc(N2CCCCCC2)c2ccccc2n1)/c1ccccc1
IC50: 8.43 µM
IC90: 11.1 µM
CC50: 37.5 µM

CC(C)OC(=O)c1ccc(N)cc1
IC50: 30.1 µM
IC90: > 100 µM

Cc1ccc(S(=O)(=O)CCc2nnc(NC(=O)c3ccccn3)s2)cc1
CC50: 38 µM

CC(=O)c1ccccc1OCC(O)CN1CCN(C(c2ccccc2)c2ccccc2)CC1 (configuration not stated)
IC50: 7.75 µM
IC90: 32.6 µM
CC50: 33.1 µM

Cc1ccc(SC/C(O)=C(\C#N)c2nc3ccccc3n2C)cc1
CC50: > 40 µM

CC(C)c1ccc(CNc2nc3nc4c(c(=O)n3[nH]2)CCC4)cc1
IC50: 0.464 µM
IC90: > 100 µM

O=C1N=C2N(CCN3CCCCC3)c3ccccc3N2/C1=C\c1ccc([N+](=O)[O-])o1
IC50: 1.56 µM
IC90: 1.6 µM
CC50: 4.9 µM

O=C(O)c1ccc(N2C(=O)/C(=C/c3ccc(-c4ccc([N+](=O)[O-])cc4)o3)C=C2c2ccccc2)cc1
IC50: 19 µM
IC90: 26.5 µM
CC50: 20.1 µM

CCCn1c(NC(=O)c2ccc(Br)cc2)nc2ccccc21
IC50: 17.2 µM
IC90: > 100 µM
CC50: > 40 µM

COc1cccc(C(=O)Nc2ccc(-c3nc4ccccc4o3)c(O)c2)c1
IC50: 8.7 µM
IC90: > 100 µM
CC50: > 40 µM

CC1(C)CC(=O)C2=C(C1)OC(N)=C([N+](=O)[O-])C2c1ccc(C#N)s1 (configuration not stated)
IC50: 10.9 µM
IC90: 15.2 µM

N#CC(C#N)=c1ccc2c(c1)N1C(c3ccccc3)=CC(c3ccccc3)C3CCCCC31N=2 (configuration not stated)
IC50: 28.3 µM
IC90: > 100 µM

CC(C)(C)c1ccc(-c2cn(-c3ccc(Br)cc3)c3[n+]2CCCS3)cc1
IC50: 2.62 µM
IC90: 4.97 µM
CC50: 13.3 µM

c1ccc(CCCN2CCN(CCOC(c3ccccc3)c3ccccc3)CC2)cc1
IC50: 5.22 µM
IC90: 5.82 µM
CC50: > 40 µM

Nc1nc(COc2ccc(Cl)cc2)cs1
IC90: > 100 µM

CCOC(=O)c1ccc(NC(=O)N2CCN(Cc3ccccc3)CC2)cc1
IC90: > 100 µM

Cc1ccc(NC(=O)C2CCCCC2C(=O)O)cc1Cl (configuration not stated)
IC90: > 100 µM

Cc1ccc2c(c1)c1ncnc(N3CCc4ccccc4C3)c1n2C
IC50: 6.39 µM
IC90: 11.2 µM

CC(C)(C)Nc1nc(NC(C)(C)C)nc(-n2ccnc2)n1
IC50: 11.4 µM
IC90: 13.1 µM
